Here are results for seven compounds from ChEMBL document CHEMBL4622883, “Bisbenzylisoquinoline alkaloids and P-glycoprotein function: A structure activity relationship study” (Bioorg Med Chem, 2020).

Assay type in all cases: cell-based; call rule not given here
The target of series [1] is T1, ATP-dependent translocase ABCB1 (Homo sapiens, UniProt P08183). The series can be described thus: Inhibition of P-glycoprotein-mediated Rhodamine-123 efflux in human MOLT4/DNR cells assessed as inhibition of P-glycoprotein efflux function at 10 uM incubated for 1 hr by flow cytometry. Background: Flow cytometry measures light scatter and fluorescence of single cells or particles in a stream.

Series [2] has as its target T1, ATP-dependent translocase ABCB1. Put plainly: Inhibition of P-glycoprotein-mediated Rhodamine-123 efflux in human MOLT4/DNR cells assessed as inhibition of P-glycoprotein efflux function at 0.3 uM incubated for 1 hr by flow cytometry.
Series [3] shares this target. Put plainly: Inhibition of P-glycoprotein-mediated Rhodamine-123 efflux in human MOLT4/DNR cells assessed as inhibition of P-glycoprotein efflux function at 1 uM incubated for 1 hr by flow cytometry.
Series [4] shares this target. Put plainly: Inhibition of P-glycoprotein-mediated Rhodamine-123 efflux in human MOLT4/DNR cells assessed as Rhodamine-123 accumulation incubated for 1 hr by flow cytometry.

T1 sequence (P08183 whole entry): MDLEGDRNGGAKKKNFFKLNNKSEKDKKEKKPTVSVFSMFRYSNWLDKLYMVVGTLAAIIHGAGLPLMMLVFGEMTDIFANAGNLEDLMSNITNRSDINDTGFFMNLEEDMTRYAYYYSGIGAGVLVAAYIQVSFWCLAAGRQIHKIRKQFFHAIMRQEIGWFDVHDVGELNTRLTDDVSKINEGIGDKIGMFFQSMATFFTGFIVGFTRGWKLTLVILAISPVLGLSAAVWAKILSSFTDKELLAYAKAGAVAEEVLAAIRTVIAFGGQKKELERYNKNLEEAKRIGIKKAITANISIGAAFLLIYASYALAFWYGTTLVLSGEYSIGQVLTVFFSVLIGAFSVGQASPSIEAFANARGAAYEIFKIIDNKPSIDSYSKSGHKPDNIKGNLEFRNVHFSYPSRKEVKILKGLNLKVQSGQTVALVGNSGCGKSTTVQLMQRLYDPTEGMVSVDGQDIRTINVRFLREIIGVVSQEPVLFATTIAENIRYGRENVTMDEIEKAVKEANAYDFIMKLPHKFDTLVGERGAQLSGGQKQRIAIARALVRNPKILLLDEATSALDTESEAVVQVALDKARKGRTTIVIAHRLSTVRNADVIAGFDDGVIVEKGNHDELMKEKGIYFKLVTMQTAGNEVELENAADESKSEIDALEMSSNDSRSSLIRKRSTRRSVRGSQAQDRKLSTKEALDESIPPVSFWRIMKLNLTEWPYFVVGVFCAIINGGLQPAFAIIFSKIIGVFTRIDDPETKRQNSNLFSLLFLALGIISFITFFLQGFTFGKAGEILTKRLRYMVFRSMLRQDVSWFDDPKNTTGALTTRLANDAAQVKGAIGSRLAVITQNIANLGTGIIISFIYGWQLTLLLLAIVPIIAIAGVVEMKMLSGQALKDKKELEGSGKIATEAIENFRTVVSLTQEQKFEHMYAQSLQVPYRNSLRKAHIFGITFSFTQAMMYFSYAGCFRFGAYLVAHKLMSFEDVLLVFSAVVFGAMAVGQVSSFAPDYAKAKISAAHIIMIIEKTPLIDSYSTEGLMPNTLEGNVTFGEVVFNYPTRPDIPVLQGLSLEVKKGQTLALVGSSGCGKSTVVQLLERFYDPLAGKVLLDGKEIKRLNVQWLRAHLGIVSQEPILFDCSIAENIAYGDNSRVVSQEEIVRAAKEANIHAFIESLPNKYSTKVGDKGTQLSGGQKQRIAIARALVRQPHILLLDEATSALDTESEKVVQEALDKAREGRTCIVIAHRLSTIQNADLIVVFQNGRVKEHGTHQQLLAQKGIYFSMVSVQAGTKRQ

For `COc1cc2c(cc1OC)[C@@H](Cc1ccc(O)cc1)N(C)CC2`, the “inhibition (INH)” value in series [1] is recorded as “Active”.

`COc1ccc2cc1Oc1ccc(cc1)C[C@H]1c3cc(c(OC)cc3CCN1C)Oc1c(OC)c(OC)cc3c1[C@@H](C2)N(C)CC3`: the “inhibition (INH)” value in series [2] is reported as “Not Active”; in series [1], “Active”; in series [3] it was “Not Active”.

For the compound `COc1cc2c3cc1Oc1c(OC)c(OC)cc4c1[C@@H](Cc1ccc(O)c(c1)Oc1ccc(cc1)C[C@@H]3N(C)CC2)N(C)CC4` [BERBAMINE], the “inhibition (INH)” value in series [2] is recorded as “Not Active”; in series [1], “Active”; in series [3], “Not Active”.

`COc1ccc2cc1Oc1ccc(cc1)C[C@H]1c3c(cc4c(c3Oc3cc5c(cc3OC)CCN(C)[C@@H]5C2)OCO4)CCN1C` [CEPHARANTHINE]: the figures for the “inhibition (INH)” value in series [1] and in series [3] were “Active” and “Not Active”, respectively.

`COc1cc2c(cc1OC)[C@@H](Cc1ccc(Oc3cc(C[C@@H]4c5cc(OC)c(OC)cc5CCN4C)ccc3O)cc1)N(C)CC2` [DAURICINE]: the “inhibition (INH)” value in series [1] is recorded as “Active”.

With `COc1ccc2cc1Oc1ccc(cc1)C[C@H]1c3cc(c(OC)cc3CCN1C)Oc1c(OC)c(OC)cc3c1[C@H](C2)N(C)CC3` [FANCHININ], the “inhibition (INH)” value in series [4] was “Dose-dependent effect”; in series [2], “Active”; in series [1], “Active”; in series [3], “Active”.

Take `COc1ccc2cc1Oc1ccc(cc1)C[C@H]1c3cc(c(OC)cc3CCN1C)Oc1c(O)c(OC)cc3c1[C@H](C2)N(C)CC3` [FANGCHINOLINE]: the “inhibition (INH)” value is “Active” in series [1] and “Not Active” in series [3].
